Measurements reported in patent US10392348B2, “2-oxo-3,4-dihydroquinoline compounds as plant growth regulators” (Syngenta Participations AG, priority 2015, dated 2019).
Like-named read-outs stand apart in the source and are kept apart here.

Key:
[1] = system: corn plants (variety NK OCTET); assay: Reduced plant water use in corn (foliar spray, repeated weighing of pots); type: in vivo; details: Zea mays, corn plants sprayed at 500 μM, average of 6 pots
Description: Compounds were tested for their effect on reducing plant water use as follows. The compounds were applied by foliar spray to 12 day old corn plants (variety NK OCTET) grown in controlled environment plant growth chambers. All compounds were applied using an emulsifiable concentrate (EC) formulation that was diluted to the desired concentrations with water containing 0.4% of the adjuvant rape seed methyl ester. Plant water use during the day was assessed by repeated weighing of the pots in which the plants were grown before and after application of the compounds at the indicated times (expressed in days after application (DAA)). The water use data before application was used to correct any differences in water use arising due to non-treatment effects (e.g. due to differences in plant size). The untransformed water use values were subjected to an analysis of covariance, fitting the effect of treatment and using the baseline water use 1 day before application as a covariate. Application of the chemicals (0 DAA) takes place approximately between 08:00 and 09:30 a.m. WU is measured within day time (chamber light is on 06:00 to 20:00) at these timepoints: 0 DAA a.m. (10:30-12:50), 0 DAA p.m. (14:00-19:50), 1 DAA a.m. (07:30-12:50), 1 DAA p.m. (14:00-19:50), 2 DAA a.m. (07:30-12:50) and 2 DAA p.m. (14:00-19:50). The cumulative total WU (0-2.5 DAA) is calculated by summing the WU data mentioned above.

[2] = system: soybean plants (variety S20-G7); assay: Reduced plant water use in soybean (foliar spray, repeated weighing of pots); type: in vivo; details: Glycine max, foliar, Table B1, sprayed at 500 μM, vs negative control
Procedure, shortened: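 Compounds in blank EC formulation diluted in water with EXTRAVON 1 g/20 L, foliar-sprayed on 12-day-old soybean in growth chambers. Water use from repeated pot weighing at a.m./p.m. periods over 0-2 DAA, summed to cumulative 0-2.5 DAA; ANCOVA with pre-application baseline covariate, relative to blank-formulation control.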

[3] = 0 h, water use during day time vs negative control, 0 DAA a.m. (10:30-12:50), read-out: % WU 0 DAA AM
[4] = 0 h, water use during day time vs negative control, 0 DAA p.m. (14:00-19:50), read-out: % WU 0DAA PM
[5] = 24 h, water use during day time vs negative control, 1 DAA a.m. (07:30-12:50), read-out: % WU 1DAA AM
[6] = 24 h, water use during day time vs negative control, 1 DAA p.m. (14:00-19:50), read-out: % WU 1DAA PM
[7] = 48 h, water use during day time vs negative control, 2 DAA a.m. (07:30-12:50), read-out: % WU 2 DAA AM
[8] = 48 h, water use during day time vs negative control, 2 DAA p.m. (14:00-19:50), read-out: % WU 2 DAA PM
[9] = 60 h, cumulative total water use 0-2.5 DAA (sum of the time points) vs negative control, read-out: % WU Total 0 to 2.5 DAA
[10] = 0 h, 0 DAA a.m. (10:30-12:50), read-out: % WU 0 DAA AM
[11] = 24 h, 1 DAA a.m. (7:30-12:50), read-out: % WU 1DAA AM
[12] = 24 h, 1 DAA p.m. (14:00-19:50), read-out: % WU 1DAA PM
[13] = 48 h, 2 DAA a.m. (07:30-12:50), read-out: % WU 2 DAA AM
[14] = 48 h, 2 DAA p.m. (14:00-19:50), read-out: % WU 2 DAA PM
[15] = 60 h, cumulative total WU (0-2.5 DAA), read-out: % WU Total 0 to 2.5 DAA

Row | SMILES | melting point [°C] | change in vivo at 500 µM [1, 3] [%] | change in vivo at 500 µM [1, 4] [%] | change in vivo at 500 µM [1, 5] [%] | change in vivo at 500 µM [1, 6] [%] | change in vivo at 500 µM [1, 7] [%] | change in vivo at 500 µM [1, 8] [%] | change in vivo at 500 µM [1, 9] [%] | change in vivo at 500 µM [2, 10] [%] | change in vivo at 500 µM [2, 11] [%] | change in vivo at 500 µM [2, 12] [%] | change in vivo at 500 µM [2, 13] [%] | change in vivo at 500 µM [2, 14] [%] | change in vivo at 500 µM [2, 15] [%]
1 | CCN1C(=O)CCc2cc(CNS(=O)(=O)c3ccc(Br)cc3)ccc21 [Compound 2.002, 4-bromo-N-[(1-ethyl-2-oxo-3,4-dihydroquinolin-6-yl)methyl]benzenesulfonamide] | 176 to 183 | -10.8 | -3.6 | -3.2 | -3.9 | -1.2 | -1.7 | -3.2 | -10.4 | -6.5 | -4 | -5.6 | -4.2 | -5.8
2 | CCN1C(=O)CCc2cc(CNS(=O)(=O)c3ccc(C(F)(F)F)cc3)ccc21 [Compound 2.015, N-[(1-ethyl-2-oxo-3,4-dihydroquinolin-6-yl)methyl]-4-(trifluoromethyl)benzenesulfonamide] | 180 to 181 | -8.9 | -3.4 | -4 | -2.6 | -1.9 | -1 | -2.9 |  |  |  |  |  | 
3 | CCN1C(=O)CCc2cc(CNS(=O)(=O)/C=C/c3cccc(Cl)c3)ccc21 [Compound 2.069, (E)-2-(3-chlorophenyl)-N-[(1-ethyl-2-oxo-3,4-dihydroquinolin-6-yl)methyl]ethenesulfonamide] | 149 to 151 | -6.5 | -3.5 | -3.3 | -3.7 | -2.1 | -1.9 | -3.2 |  |  |  |  |  | 
4 | CCN1C(=O)CCc2cc(CNS(=O)(=O)/C=C/c3ccccc3)ccc21 [Compound 2.051, (E)-N-[(1-ethyl-2-oxo-3,4-dihydroquinolin-6-yl)methyl]-2-phenyl-ethenesulfonamide] | 134 to 137 | -13.2 | -8.5 | -10.7 | -8.6 | -8.7 | -6.5 | -9.1 |  |  |  |  |  | 

Continued, in another order:

Row | melting point [°C] | SMILES | change in vivo at 500 µM [1, 3] [%] | change in vivo at 500 µM [1, 4] [%] | change in vivo at 500 µM [1, 5] [%] | change in vivo at 500 µM [1, 6] [%] | change in vivo at 500 µM [1, 7] [%] | change in vivo at 500 µM [1, 8] [%] | change in vivo at 500 µM [1, 9] [%] | change in vivo at 500 µM [2, 10] [%] | change in vivo at 500 µM [2, 11] [%] | change in vivo at 500 µM [2, 12] [%] | change in vivo at 500 µM [2, 13] [%] | change in vivo at 500 µM [2, 14] [%] | change in vivo at 500 µM [2, 15] [%]
5 | 131 to 134 | CCCN1C(=O)CCc2cc(CNS(=O)(=O)c3cc(Cl)sc3Cl)ccc21 [Compound 3.064, 2,5-dichloro-N-[(2-oxo-1-propyl-3,4-dihydroquinolin-6-yl)methyl]thiophene-3-sulfonamide] | -12.6 | -14.2 | -11.6 | -9.9 | -5.6 | -4.7 | -9.3 | -34.7 | -23.3 | -21.3 | -17.2 | -13.5 | -22.2
6 | 150 to 154 | CCCN1C(=O)CCc2cc(CNS(=O)(=O)c3ccsc3)ccc21 [Compound 3.068, N-[(2-oxo-1-propyl-3,4-dihydroquinolin-6-yl)methyl]thiophene-3-sulfonamide] | -25.5 | -24.9 | -15.8 | -13.1 | -8.9 | -9.4 | -14.8 | -46 | -39.3 | -31.6 | -22.3 | -15.3 | -31.6
7 | 143 to 144 | CCCN1C(=O)CCc2cc(CNS(=O)(=O)c3ccc(F)cc3)ccc21 [Compound 3.009, 4-fluoro-N-[(2-oxo-1-propyl-3,4-dihydroquinolin-6-yl)methyl]benzenesulfonamide] | -16.9 | -13.9 | -13.2 | -11.9 | -9 | -8.2 | -11.6 | -17.5 | -9.4 | -6.4 | -5.5 | -4.2 | -8.5
8 | 141 to 144 | CCCN1C(=O)CCc2cc(CNS(=O)(=O)c3ccc(F)cc3F)ccc21 [Compound 3.006, 2,4-difluoro-N-[(2-oxo-1-propyl-3,4-dihydroquinolin-6-yl)methyl]benzenesulfonamide] | -18 | -14.1 | -12.6 | -10.2 | -6.6 | -5.7 | -10.3 | -36.5 | -28.3 | -24.2 | -17.8 | -14.9 | -24.5
9 | 95 to 99 | C/C=C/S(=O)(=O)NCc1ccc2c(c1)CCC(=O)N2CCC [Compound 3.060, (E)-N-[(2-oxo-1-propyl-3,4-dihydroquinolin-6-yl)methyl]prop-1-ene-1-sulfonamide] | -14.8 | -10 | -10.6 | -8.4 | -8.2 | -6.4 | -9.3 | -7.9 | -5.8 | -2.6 | -5.4 | -2.7 | -4.6
10 | 151 to 154 | CCCN1C(=O)CCc2cc(CNS(=O)(=O)c3ccc(C)s3)ccc21 [Compound 3.061, 5-methyl-N-[(2-oxo-1-propyl-3,4-dihydroquinolin-6-yl)methyl]thiophene-2-sulfonamide] | -20.8 | -19.1 | -9.5 | -7.5 | -2.8 | -3.9 | -9 | -47.8 | 1 | 3.4 | 1.6 | 1.2 | -13.7
11 | 165 to 168 | CCCN1C(=O)CCc2cc(CNS(=O)(=O)/C=C/c3ccccc3)ccc21 [Compound 3.051, (E)-N-[(2-oxo-1-propyl-3,4-dihydroquinolin-6-yl)methyl]-2-phenyl-ethenesulfonamide] | -11.2 | -6.4 | -8.1 | -5.5 | -5.4 | -4.3 | -6.2 |  |  |  |  |  | 
